Assays:
HeLa cell line = assay: MTT cytotoxicity test, HeLa; type: cell-based; settings: Homo sapiens, 24 h treatment, triplicate, read-out: IC50 (μM) ± SD HeLa
Description: (§1) The human epithelioid cervix carcinoma cell line (HeLa), human ductal breast epithelial tumor cell line (T47D), Michigan Cancer Foundation-7 cell line (MCF-7), human colon carcinoma cell line (WIDR), hepatoblastoma-derived cell line (HepG2), and Vero cell line (derived from kidney of African green monkey) were purchased from ATCC by the Faculty of Medicine Gadjah Mada University. The cell lines were cultured in Dulbecco’s Modified Eagle Medium (DMEM, Gibco), except for Vero cell line, which was cultured in Medium-199 (M-199, Gibco). Other chemicals, i.e., potassium dihydrogen phosphate, sodium chloride, potassium chloride, sodium hydrogen phosphate, dimethyl sulfoxide, sodium dodecyl sulphate, HEPES, sodium bicarbonate, and 3-(4,5-dimetiltiazol-2-il)-2,5-difeniltetrazolium bromide (MTT) were purchased from Sigma-Aldrich. Fetal bovine serum, trypsin-EDTA 0.25%, and penicillin-streptomycin were purchased from Gibco, whereas Amphotericin B was purchased from Caisson. Phosphate-buffered saline (PBS) was obtained by mixing 0.2 g of KH2PO4, 8 g of NaCl, 0.2 g of KCl, 1.15 g of Na2HPO4, and 1 L of distilled water.
(§2) Confluent cells in the Petri dish was harvested by removing the growth media in Petri dish and adding 1 mL of trypsin-EDTA […]. Then the cells was incubated at incubator 37 °C, 5% CO2 for about three minutes. The suspension of cells was put in centrifuge tube, 2 mL of growth media was added with 7 mL of PBS. The mixture was centrifuged for 10 min at 1200 rpm. The supernatant was separated and 2–3 mL of growth media was added to the pellet cell for counting cell. The cell suspense was cultured in 96-well plates (10,000 cells/well). After 24 h, the porphyrin derivative compounds with series concentration were added to treat the cell cultures for another 24 h. The cells were treated by MTT solution for four hours at incubator (37 °C, 5% CO2) and the reaction was stopped by stopper solution (SDS 10% HCl). The plate was incubated at room temperature in dark condition for 24 h. The living cells were counted by reading the absorbance at 595 nm. The corresponding IC50 values were calculated using non-linear regression analysis (GraphPad Prism 7.0.3). Each test was run in triplicate.

T47D cell line = assay: MTT cytotoxicity test, T47D; type: cell-based; settings: Homo sapiens, 24 h treatment, triplicate, read-out: IC50 (μM) ± SD T47D
Description: as §1, §2

WIDR cell line = assay: MTT cytotoxicity test, WIDR; type: cell-based; settings: Homo sapiens, 24 h treatment, triplicate, read-out: IC50 (μM) ± SD WIDR
Description: as §1, §2

Vero cell line = assay: MTT cytotoxicity test, Vero (normal cells); type: cell-based, African green monkey; settings: Chlorocebus sabaeus, 24 h treatment, triplicate, read-out: IC50 (μM) ± SD Vero
Description: as §1, §2

MCF-7 cell line = assay: MTT cytotoxicity test, MCF-7; type: cell-based; settings: Homo sapiens, MCF7, 24 h treatment, triplicate, read-out: IC50 (μM) ± SD MCF-7
Description: as §1, §2

HepG2 cell line = assay: MTT cytotoxicity test, HepG2; type: cell-based; settings: Homo sapiens, 24 h treatment, triplicate, read-out: IC50 (μM) ± SD HepG2
Description: as §1, §2

SMILES | melting point [°C] | IC50 (HeLa cell line) [µM] | IC50 (T47D cell line) [µM] | IC50 (WIDR cell line) [µM] | IC50 (Vero cell line) [µM] | IC50 (MCF-7 cell line) [µM] | IC50 (HepG2 cell line) [µM]
CCOC(=O)COc1ccc(-c2c3nc(c(-c4cnn(C)c4)c4ccc([nH]4)c(-c4ccc(OCC(=O)OCC)c(OCC(=O)OCC)c4)c4nc(c(-c5cnn(C)c5)c5ccc2[nH]5)C=C4)C=C3)cc1OCC(=O)OCC [DBECPDPzP, 5,15-di-[bis(3,4-ethylcarboxymethylenoxy)phenyl]-10,20-di-(methylpyrazole-4-yl)porphyrin] | – | 941.9 ± 1.2 | 177.8 ± 1.2 | 34.1 ± 1.1 | 363.4 ± 1.1 | 64.2 ± 1.1 | 31.7 ± 1.2
CCOC(=O)COc1ccc(-c2c3nc(c(-c4ccc(C)cc4)c4ccc([nH]4)c(-c4ccc(OCC(=O)OCC)c(OCC(=O)OCC)c4)c4nc(c(-c5ccc(C)cc5)c5ccc2[nH]5)C=C4)C=C3)cc1OCC(=O)OCC [DBECPDTP, 5,15-di-[bis(3,4-ethylcarboxymethylenoxy)phenyl]-10,20-di(p-tolyl)porphyrin] | – | 201.7 ± 1.3 | 166.7 ± 1.3 | 33.5 ± 1.1 | 372.2 ± 1.1 | 42.1 ± 1.1 | 37.2 ± 1.1
Nc1ccc(-c2c3nc(c(-c4ccc(N)cc4)c4ccc([nH]4)c(-c4ccc(N)cc4)c4nc(c(-c5ccc(N)cc5)c5ccc2[nH]5)C=C4)C=C3)cc1 [TAPP, 5,10,15,20-tetrakis(p-aminophenyl)porphyrin] | – | 1007 ± 1.1 | 332.6 ± 1.2 | 205.1 ± 1.2 | 2264 ± 1.2 | 262.2 ± 1.3 | 36 ± 1.2
CCOC(=O)COc1ccc(-c2c3nc(c(-c4ccc(OCC(=O)OCC)c(OCC(=O)OCC)c4)c4ccc([nH]4)c(-c4cnn(C)c4)c4nc(c(-c5cnn(C)c5)c5ccc2[nH]5)C=C4)C=C3)cc1OCC(=O)OCC [cDBECPDPzP, 5,10-di-[bis(3,4-ethylcarboxymethylenoxy)phenyl]-15,20-di-(methylpyrazole-4-yl)porphyrin] | – | 1083 ± 1.2 | 164.5 ± 1.2 | 28.9 ± 1.1 | 548.8 ± 1.2 | 47.9 ± 1.1 | 28.6 ± 1.2

Continued, in another order:

melting point [°C] | SMILES | IC50 (HeLa cell line) [µM] | IC50 (T47D cell line) [µM] | IC50 (WIDR cell line) [µM] | IC50 (Vero cell line) [µM] | IC50 (MCF-7 cell line) [µM] | IC50 (HepG2 cell line) [µM]
> 300 | Brc1ccc(-c2c3nc(c(-c4ccc(Br)cc4)c4ccc([nH]4)c(-c4ccc(Br)cc4)c4nc(c(-c5ccc(Br)cc5)c5ccc2[nH]5)C=C4)C=C3)cc1 [TBrPP, 5,10,15,20-tetrakis(p-bromophenyl)porphyrin] | 595.6 ± 1.3 | 443.9 ± 1.1 | 772.7 ± 1.3 | 1176 ± 1.1 | 870.6 ± 1.3 | 882.7 ± 1.2
> 300 | Cc1ccc(-c2c3nc(c(-c4ccc(C)cc4)c4ccc([nH]4)c(-c4ccc(C)cc4)c4nc(c(-c5ccc(C)cc5)c5ccc2[nH]5)C=C4)C=C3)cc1 [TTP, 5,10,15,20-tetrakis(p-tolyl)porphyrin] | 714.6 ± 1.1 | 1241 ± 1.2 | 969.8 ± 1.2 | 15600 | 1305 ± 1.3 | 1120 ± 1.3
> 300 | Cc1ccc(-c2c3nc(c(-c4ccc(C)cc4)c4ccc([nH]4)c(-c4ccc(N)cc4)c4nc(c(-c5ccc(C)cc5)c5ccc2[nH]5)C=C4)C=C3)cc1 [TrTMAP, 5,10,15-tris(tolyl)-20-mono(p-aminophenyl)porphyrin] | 593.1 ± 1.2 | 1099 ± 1.3 | 835.4 ± 1.3 | 4784 ± 1.2 | 328.4 ± 1.4 | 107 ± 1.3
> 300 | Cc1ccc(-c2c3nc(c(-c4ccc(C)cc4)c4ccc([nH]4)c(-c4ccc([N+](=O)[O-])cc4)c4nc(c(-c5ccc(C)cc5)c5ccc2[nH]5)C=C4)C=C3)cc1 [TrTMNP, 5,10,15-tris(tolyl)-20-mono(p-nitrophenyl)porphyrin] | 226.1 ± 1.1 | 5372 ± 1.4 | 897.5 ± 1.1 | 10100 | 505.2 ± 1.2 | 146.6 ± 1.2

Reference: article PMC5874704, “In Silico Study, Synthesis, and Cytotoxic Activities of Porphyrin Derivatives” (Pharmaceuticals, 2018)
